Test system: NCIH929.1 cells
Experiment: Cell viability assay (CellTiter-Glo 2.0, ATP quantification)
Type: cell-based
Details: NCIH929.1 cell viability, CellTiter-Glo 2.0, 96 hr incubation, top concentration 1 μM
Description: Example 59. Cell Viability Assay
RPMI 1640 medium, fetal bovine serum (FBS) and 2-mercaptoethanol were purchased from Gibco (Grand Island, N.Y., USA). CellTiter-Glo® 2.0 Assay was purchased from Promega (Madison, Wis., USA). NCIH929.1 cell line was purchased from ATCC (Manassas, Va., USA). Cell culture flasks and 384-well microplates were acquired from VWR (Radnor, Pa., USA).
NCIH929.1 cell viability was determined based on quantification of ATP using CellTiter-Glo® 2.0 luminescent Assay kit, which signals the presence of metabolically-active cells. Briefly, the test compound was added to 384-well plates at a top concentration of 1 μM with 10 points, half log titration in duplicates. NCIH929.1 cells were seeded into the 384-well plates in RPMI medium containing 10% FBS and 0.05 mM 2-mercaptoethanol at a cell density of 750 cells per well. Cells treated in the absence of the test compound were the negative control and cells treated in the absence of CellTiter-Glo® 2.0 were the positive control. At the same day of compound treatment, CellTiter-Glo® 2.0 was added to a plate with cells treated in the absence of the test compound to establish Cytostatic control value (CT0). Cells treated with the test compound were incubated at 37° C. with 5% CO2 for 96 hr. CellTiter-Glo reagent was then added to the cells and luminescence was acquired on EnVision™ Multilabel Reader (PerkinElmer, Santa Clara, Calif., USA).

Row | SMILES | GI50 [µM]
1 | CC(C(=O)N1CCC(n2cc(CNc3cccc4c3C(=O)N(C3CCC(=O)NC3=O)C4=O)cn2)CC1)(C(F)(F)F)C(F)(F)F (stereo not drawn) [Compound 56, 2-(2,6-dioxopiperidin-3-yl)-4-(((1-(1-(3,3,3-trifluoro-2-methyl-2-(trifluoromethyl)propanoyl)piperidin-4-yl)-1H-pyrazol-4-yl)methyl)amino)isoindoline-1,3-dione] | < 0.1
2 | O=C1CCC(N2C(=O)c3cccc(NCc4cnn(C5CCN(C(=O)[C@@H]6CCCO6)CC5)c4)c3C2=O)C(=O)N1 (stereo partly drawn) [Compound 59, 2-(2,6-dioxopiperidin-3-yl)-4-(((1-(1-((S)-tetrahydrofuran-2-carbonyl)piperidin-4-yl)-1H-pyrazol-4-yl)methyl)amino)isoindoline-1,3-dione] | < 0.1
3 | O=C1CCC(N2C(=O)c3cccc(NCc4cnn(C5CCN(C(=O)C6(C(F)(F)F)CC6)CC5)c4)c3C2=O)C(=O)N1 (stereo not drawn) [Compound 60, 2-(2,6-dioxopiperidin-3-yl)-4-(((1-(1-(1-(trifluoromethyl)cyclopropane-1-carbonyl)piperidin-4-yl)-1H-pyrazol-4-yl)methyl)amino)isoindoline-1,3-dione] | < 0.1
4 | CC1(C(=O)N2CCC(n3cc(CNc4cccc5c4C(=O)N(C4CCC(=O)NC4=O)C5=O)cn3)CC2)COC1 (stereo not drawn) [Compound 61, 2-(2,6-dioxopiperidin-3-yl)-4-(((1-(1-(3-methyloxetane-3-carbonyl)piperidin-4-yl)-1H-pyrazol-4-yl)methyl)amino)isoindoline-1,3-dione] | < 0.1
5 | CC1(C(=O)N2CCC(n3cc(CNc4cccc5c4C(=O)N(C4CCC(=O)NC4=O)C5=O)cn3)CC2)CCCC1 (stereo not drawn) [Compound 62, 2-(2,6-dioxopiperidin-3-yl)-4-(((1-(1-(1-methylcyclopentane-1-carbonyl)piperidin-4-yl)-1H-pyrazol-4-yl)methyl)amino)isoindoline-1,3-dione] | < 0.001
6 | CC1(C(=O)N2CCC(n3cc(CNc4cccc5c4C(=O)N(C4CCC(=O)NC4=O)C5=O)cn3)CC2)CCCCC1 (stereo not drawn) [Compound 63, 2-(2,6-dioxopiperidin-3-yl)-4-(((1-(1-(1-methylcyclohexane-1-carbonyl)piperidin-4-yl)-1H-pyrazol-4-yl)methyl)amino)isoindoline-1,3-dione] | < 0.001
7 | CC1(C(=O)N2CCC(n3cc(CNc4cccc5c4C(=O)N(C4CCC(=O)NC4=O)C5=O)cn3)CC2)CCOCC1 (stereo not drawn) [Compound 64, 2-(2,6-dioxopiperidin-3-yl)-4-(((1-(1-(4-methyltetrahydro-2H-pyran-4-carbonyl)piperidin-4-yl)-1H-pyrazol-4-yl)methyl)amino)isoindoline-1,3-dione] | < 0.1
8 | CC(C)(C)OC(=O)N1CCC(n2cc(CNc3cccc4c3C(=O)N(C3CCC(=O)NC3=O)C4=O)cn2)CC1 (stereo not drawn) [Compound 66, tert-butyl 4-(4-(((2-(2,6-dioxopiperidin-3-yl)-1,3-dioxoisoindolin-4-yl)amino)methyl)-1H-pyrazol-1-yl)piperidine-1-carboxylate] | < 0.1
9 | O=C1CCC(N2C(=O)c3cccc(NCc4cnn(C5CCN(C(=O)C6(c7ccc(F)cc7)CCCCC6)CC5)c4)c3C2=O)C(=O)N1 (stereo not drawn) [Compound 68, 2-(2,6-dioxopiperidin-3-yl)-4-(((1-(1-(1-(4-fluorophenyl)cyclohexane-1-carbonyl)piperidin-4-yl)-1H-pyrazol-4-yl)methyl)amino)isoindoline-1,3-dione] | < 0.1
10 | O=C1CCC(N2C(=O)c3cccc(NCc4cnn(C5CCN(C(=O)C6(c7ccccc7)COC6)CC5)c4)c3C2=O)C(=O)N1 (stereo not drawn) [Compound 69, 2-(2,6-dioxopiperidin-3-yl)-4-(((1-(1-(3-phenyloxetane-3-carbonyl)piperidin-4-yl)-1H-pyrazol-4-yl)methyl)amino)isoindoline-1,3-dione] | < 0.1
11 | O=C1CCC(N2C(=O)c3cccc(NCc4cnn(C5CCN(C(=O)C6(c7ccc(F)cc7)CCC6)CC5)c4)c3C2=O)C(=O)N1 (stereo not drawn) [Compound 70, 2-(2,6-dioxopiperiidn-3-yl)-4-(((1-(1-(1-(4-fluorophenyl)cyclobutane-1-carbonyl)piperidin-4-yl)-1H-pyrazol-4-yl)methyl)amino)isoindoline-1,3-dione] | < 0.001
12 | O=C1CCC(N2C(=O)c3cccc(NCc4cnn(C5CCN(C(=O)C6(Cc7ccccc7)CC6)CC5)c4)c3C2=O)C(=O)N1 (stereo not drawn) [Compound 71, 4-(((1-(1-(1-benzylcyclopropane-1-carbonyl)piperidin-4-yl)-1H-pyrazol-4-yl)methyl)amino)-2-(2,6-dioxopiperidin-3-yl)isoindoline-1,3-dione] | < 0.1
13 | O=C1CCC(N2C(=O)c3cccc(NCc4cnn(C5CCN(C(=O)C6(c7ccccc7)CC6)CC5)c4)c3C2=O)C(=O)N1 (stereo not drawn) [Compound 72, 2-(2,6-dioxopiperidin-3-yl)-4-(((1-(1-(1-phenylcyclopropane-1-carbonyl)piperidin-4-yl)-1H-pyrazol-4-yl)methyl)amino)isoindoline-1,3-dione] | < 0.1
14 | CC(C)(C(=O)N1CCC(n2cc(CNc3cccc4c3C(=O)N(C3CCC(=O)NC3=O)C4=O)cn2)CC1)C(F)(F)F (stereo not drawn) [Compound 73, 2-(2,6-dioxopiperidin-3-yl)-4-(((1-(1-(3,3,3-trifluoro-2,2-dimethylpropanoyl)piperidin-4-yl)-1H-pyrazol-4-yl)methyl)amino)isoindoline-1,3-dione] | < 0.1
15 | CC1(C(=O)N2CCC(n3cc(CNc4cccc5c4C(=O)N(C4CCC(=O)NC4=O)C5=O)cn3)CC2)CC(F)(F)C1 (stereo not drawn) [Compound 74, 4-(((1-(1-(3,3-difluoro-1-methylcyclobutane-1-carbonyl)piperidin-4-yl)-1H-pyrazol-4-yl)methyl)amino)-2-(2,6-dioxopiperidin-3-yl)isoindoline-1,3-dione] | < 0.1
16 | O=C1CCC(N2C(=O)c3cccc(NCc4cnn(C5CCN(C(=O)C6(C(F)(F)F)CCC6)CC5)c4)c3C2=O)C(=O)N1 (stereo not drawn) [Compound 75, 2-(2,6-dioxopiperidin-3-yl)-4-(((1-(1-(1-(trifluoromethyl)cyclobutane-1-carbonyl)piperidin-4-yl)-1H-pyrazol-4-yl)methyl)amino)isoindoline-1,3-dione] | < 0.001
17 | O=C1CCC(N2C(=O)c3cccc(NCc4cnn(C5CCN(C(=O)C6(c7ccc(F)cc7)CCCC6)CC5)c4)c3C2=O)C(=O)N1 (stereo not drawn) [Compound 77, 2-(2,6-dioxopiperidin-3-yl)-4-(((1-(1-(1-(4-fluorophenyl)cyclopentane-1-carbonyl)piperidin-4-yl)-1H-pyrazol-4-yl)methyl)amino)isoindoline-1,3-dione] | < 0.001
18 | O=C1CCC(N2C(=O)c3cccc(NCc4cnn(C5CCN(C(=O)C67CC(F)(C6)C7)CC5)c4)c3C2=O)C(=O)N1 (stereo not drawn) [Compound 78, 2-(2,6-dioxopiperidin-3-yl)-4-(((1-(1-(3-fluorobicyclo[1.1.1]pentane-1-carbonyl)piperidin-4-yl)-1H-pyrazol-4-yl)methyl)amino)isoindoline-1,3-dione] | < 0.1
19 | O=C1CCC(N2C(=O)c3cccc(NCc4cnn(C5CCN(C(=O)C6(F)CCC6)CC5)c4)c3C2=O)C(=O)N1 (stereo not drawn) [Compound 79, 2-(2,6-dioxopiperidin-3-yl)-4-(((1-(1-(1-fluorocyclobutane-1-carbonyl)piperidin-4-yl)-1H-pyrazol-4-yl)methyl)amino)isoindoline-1,3-dione] | < 0.1
20 | N#CC1(C(=O)N2CCC(n3cc(CNc4cccc5c4C(=O)N(C4CCC(=O)NC4=O)C5=O)cn3)CC2)CCC1 (stereo not drawn) [Compound 81, 1-(4-(4-(((2-(2,6-dioxopiperidin-3-yl)-1,3-dioxoisoindolin-4-yl)amino)methyl)-1H-pyrazol-1-yl)piperidine-1-carbonyl)cyclobutane-1-carbonitrile] | < 0.1
21 | COC1(C(=O)N2CCC(n3cc(CNc4cccc5c4C(=O)N(C4CCC(=O)NC4=O)C5=O)cn3)CC2)CCC1 (stereo not drawn) [Compound 82, 2-(2,6-dioxopiperidin-3-yl)-4-(((1-(1-(1-methoxycyclobutane-1-carbonyl)piperidin-4-yl)-1H-pyrazol-4-yl)methyl)amino)isoindoline-1,3-dione] | < 0.1
22 | O=C1CCC(N2C(=O)c3cccc(NCc4cnn(C5CCN(C(=O)C(F)(F)C(F)(F)F)CC5)c4)c3C2=O)C(=O)N1 (stereo not drawn) [Compound 83, 2-(2,6-dioxopiperidin-3-yl)-4-(((1-(1-(2,2,3,3,3-pentafluoropropanoyl)piperidin-4-yl)-1H-pyrazol-4-yl)methyl)amino)isoindoline-1,3-dione] | < 0.1
23 | O=C1CCC(N2C(=O)c3cccc(NCc4cnn(C5CCN(C(=O)C6(O)CCC6)CC5)c4)c3C2=O)C(=O)N1 (stereo not drawn) [Compound 84, 2-(2,6-dioxopiperidin-3-yl)-4-(((1-(1-(1-hydroxycyclobutane-1-carbonyl)piperidin-4-yl)-1H-pyrazol-4-yl)methyl)amino)isoindoline-1,3-dione] | < 0.1
24 | CC12CC(C(=O)N3CCC(n4cc(CNc5cccc6c5C(=O)N(C5CCC(=O)NC5=O)C6=O)cn4)CC3)(C1)C2 (stereo not drawn) [Compound 85, 2-(2,6-dioxopiperidin-3-yl)-4-(((1-(1-(3-methylbicyclo[1.1.1]pentane-1-carbonyl)piperidin-4-yl)-1H-pyrazol-4-yl)methyl)amino)isoindoline-1,3-dione] | < 0.1

From patent US11753397B2, “Cereblon binders for the degradation of ikaros” (C4 Therapeutics, Inc., priority 2018, dated 2023)
